{
  "source": "patent US20030124566A1",
  "about": "“5-Hydroxytryptamine transporter gene polymorphisms” (priority 2000, published 2003)",
  "key": {"[1]": {"system": "patients with Irritable Bowel Syndrome (IBS)", "conditions": "double-blind, placebo controlled studies (literature); cited from earlier work"}, "[2]": {"system": "female human subjects with IBS (non-constipated)", "assay": "Double-blind, placebo controlled clinical trials of alosetron for the treatment of IBS, response stratified by 5HTT genotype", "assay_type": "in vivo", "conditions": "for proportion of patients achieving response (relief of IBS symptoms): relief during six weeks of twelve week treatment", "source_text": "FIG. 1 is a graph based on data collected from female patients enrolled in clinical trials of alosetron for the treatment of IBS. The study population was comprised of non-constipated individuals with IBS. The subjects were divided into 5HTT genotypes. Of the 219 subjects, 71 (32.4%) were del/del 5HTT, 75 (34.2%) were del/ins 5HTT and 73 (33.3%) were ins/ins 5HTT. […] “Response” was defined as relief of IBS symptoms (abdominal pain and discomfort) during six weeks of a twelve week treatment study. Two hundred and nineteen subjects, received either alosetron (102 subjects) or matched placebo (117 subjects). The proportion of patients achieving response following treatment with alosetron was 68% (21/31) for del/del 5HTT, 64% (21/33) for del/ins 5HTT and 58% (22/38) for ins/ins 5HTT. The proportion of patients achieving response following treatment with placebo was 58% (23/40) for del/del 5HTT, 38% (16/42) for del/ins 5HTT and 34% (12/35) for ins/ins 5HTT.\nFIG. 2 compares, among 5HTT genotypes, the percentage of alosetron-treated subjects who reported constipation. Of the 102 alosetron treated subjects, the proportion of subjects reporting constipation was 13% (4/31) for del/del 5HTT, 30% (10/33) for del/ins 5HTT and 21% (8/38) for ins/ins 5HTT.\nGenetic samples were obtained from 219 female human subjects enrolled in clinical trials of alosetron for the treatment of IBS. Using PCR technology as is known in the art, an insertion/deletion genetic marker was assayed in the 5-hydroxytryptamine transporter gene (5HTT gene). The alleles were labeled as “del” (deletion) or “ins” (insertion) resulting in three possible genotypes (del/del; del/ins or ins/ins).\nThe subjects' response to alosetron in the clinical trial setting was reviewed and correlated with genotype. In the double-blind, placebo controlled clinical trials, subjects received 12 weeks of treatment with either alosetron or a placebo. A favorable response to alosetron was when a subject reported relief of IBS symptoms during six weeks of the twelve week trial. The incidence of various other effects, including constipation, was also recorded.\nThe response of subjects to treatment with alosetron in the clinical trial was stratified according to genotype.\nThe occurrence of constipation during alosetron treatment in the clinical trial was stratified according to genotype. […] In del/del subjects (n=31), 4 (13%) reported constipation; in del/ins subjects (n=33), 10 (30%) reported constipation; and in ins/ins subjects (n=38), 8 (21)% reported constipation (FIG. 2)."}},
  "note": "Counter-ions that a name gives are not always drawn.",
  "data": [
    {"molecule": "Cc1[nH]cnc1CN1CCc2c(c3ccccc3n2C)C1=O", "note": "[alosetron, Alosetron hydrochloride]", "values": [
      {"measurement": "effect on pain and bowel function in IBS patients", "setting": "[1]", "result": "reduce pain and improve bowel function"},
      {"measurement": "proportion of subjects reporting constipation", "setting": "[2]; del/del 5HTT genotype, alosetron-treated, 4/31 subjects", "result": 13, "unit": "%"},
      {"measurement": "proportion of patients achieving response (relief of IBS symptoms)", "setting": "[2]; del/del 5HTT genotype, 21/31 subjects", "result": 68, "unit": "%"},
      {"measurement": "proportion of subjects reporting constipation", "setting": "[2]; del/ins 5HTT genotype, alosetron-treated, 10/33 subjects", "result": 30, "unit": "%"},
      {"measurement": "proportion of patients achieving response (relief of IBS symptoms)", "setting": "[2]; del/ins 5HTT genotype, 21/33 subjects", "result": 64, "unit": "%"},
      {"measurement": "relief of IBS symptoms compared with placebo", "setting": "[2]; in each of the three 5HTT genotypes", "result": "more effective than placebo"},
      {"measurement": "proportion of subjects reporting constipation", "setting": "[2]; ins/ins 5HTT genotype, alosetron-treated, 8/38 subjects", "result": 21, "unit": "%"},
      {"measurement": "proportion of patients achieving response (relief of IBS symptoms)", "setting": "[2]; ins/ins 5HTT genotype, 22/38 subjects", "result": 58, "unit": "%"},
      {"measurement": "proportion of subjects reporting constipation", "setting": "[2]; total group of subjects receiving alosetron (n=102)", "result": 21, "unit": "%"}
    ]}
  ]
}
